Literature values as cited in patent US9089677B2, “Transcutaneous multimodal delivery system (TMDS)” (The Regents of the University of California, priority 2011, dated 2015).
Read-outs that look alike come from different tables or passages of the source.

Assays:
keratinocytes = details: cited from earlier work
fibroblasts = details: cited from earlier work
[1] = test system: fungal subspecies (e.g., Candida albicans or glabrata as well as Mucor and Aspergillus); details: time kill-kinetic; cited from earlier work
[2] = test system: keratinocyte and fibroblast; details: 10% solution; cited from earlier work
[3] = test system: normal rat kidney fibroblast (NRK, clone 49F); details: NRK fibroblast proliferation; cited from earlier work
[4] = full thickness pig burn wounds; cited from earlier work
[5] = diabetic rodent wounds; cited from earlier work
[6] = up to 3 mg/kg subcutaneously or intravenously in mice, rats, and monkey; cited from earlier work

## NCc1ccc(S(N)(=O)=O)cc1 [MA, mafenide acetate]
keratinocytes
  lowest dose with reported in vitro toxicity: 0.85%
fibroblasts
  lowest dose with reported in vitro toxicity: 0.1%

## O=[N+]([O-])[O-].[Ag+] [silver nitrate]
[1]
  antimicrobial activity against fungal subspecies: activity for only C. albicans
[2]
  keratinocyte and fibroblast toxicity: keratinocyte and fibroblast toxicity

## becaplermin: recombinant human PDGF (rhPDGF)-BB homodimer
[3]
  half maximal activity: 0.5 ng/mL
[4]
  granulation tissue formation: significantly increased granulation tissue formation
  reepithelialization: did not promote faster reepithelialization
[5]
  granulation tissue formation: significantly increased granulation tissue formation
  reepithelialization: did not promote faster reepithelialization
[6]
  acute toxicity and mortality: no significant acute toxicity or any mortality
